Columns and labels:
[1] = Circulating levels after intraperitoneal injection in GF mice; format: in vivo, mouse; conditions: 500 μg intraperitoneally twice per day for 3 days
Method: (§1) An intraperitoneal glucose tolerance test (using 1 g glucose per kg body weight) was then performed after a 4 h fast. Blood glucose levels were measured from tail blood using HemoCue201+analyzer (HemoCue, Angelholm, Sweden). Liver and plasma samples were collected after a 4 h fast. Mice were under isoflurane anesthesia and killed by cervical dislocation. Fresh liver was taken and snap-frozen in liquid nitrogen and stored at −80° C. until protein extraction.
(§2) The samples were then reconstituted with 5% HCl in n-butanol at 70° C. for 1 h, allowing n-butyl ester to be formed. […] Samples (5 μl) were injected onto a C18 BEH column (2.1×100 mm with 1.7 μm particles; Waters, Milford, Mass.) using a gradient consisting of water with 0.1% formic acid (A-phase) and acetonitrile with 0.1% formic acid (B-phase). Mass spectrometric analysis was performed using an Infinity 1290 quaternary UPLC pump (Agilent, Santa Clara, Calif.) coupled to a QTRAP 5500 (ABSciex, Concord, Canada). […] For the internal standards, the transitions 206/81 and 204/93 were used.

[2] = system: insulin signaling components; assay: Immunoblot of liver lysates from GF mice; format: in vivo, mouse; conditions: 3-day treatment
Method: as §1
(§3) Snap-frozen liver and harvested cells were lysed in buffer containing 50 mM Tris-HCl (pH 7.4), 150 mM NaCl, 1 mM EDTA, 1 mM Na3VO4, 20 mM NaF, 10 mM glycerophosphate, 1 mM PMSF, 10% glycerol, 1% Triton X-100 and protease inhibitor cocktail. For immunoprecipitation, the cell lysates were obtained in 0.3% CHAPS-containing lysis buffer, sonicated and centrifuged at 20,000 g for 15 min at 4° C., and the supernatant was incubated with 20 μl of anti-FLAG beads (Sigma) at 4° C. for 4 h under gentle agitation.

[3] = Plasma levels after intraperitoneal injection in CONVR mice; format: in vivo, mouse; conditions: 100 μg i.p. twice per day for 3 days
Method: as §1, §2

primary hepatocytes = assay: Insulin signaling in primary hepatocytes (immunoblot); format: cell-based, mouse
Method: as §3
(§4) Primary hepatocytes were isolated from C57BL/6J mice by digesting liver with perfusion of collagenase type IV as described previously. After perfusion, 16×10^5 cells were plated on collagen-coated 60 mm dishes in Dulbecco's modified Eagle's medium (DMEM)/F12 supplemented with fetal bovine serum (FBS), penicillin/streptomycin and 100 nM dexamethasone. After 4 h, the medium was changed to DMEM/F12 containing penicillin/streptomycin.

[4] = system: amino acid-deprived primary hepatocytes; assay: Amino acid-deprived primary hepatocytes (immunoblot); format: cell-based, mouse; conditions: absence of amino acids; 100 μM for 2 h
Method: as §4

HEK293 cells = assay: Immunofluorescence of mTOR and LAMP2 in HEK293 cells; format: cell-based, human; conditions: amino acid-deprived HEK293; 100 μM for 1 h
Method: Cells were grown on poly-L-lysine (Sigma) coated 4 well chamber slides, fixed with 4% paraformaldehyde for 15 min at 37° C., then washed with glycine-PBS and permeablized with 0.3% Triton X-100 for 10 min. After blocking with 3% BSA in PBS, cells were stained for mTOR and LAMP2. Images were obtained by confocal microscope.

[5] = system: mTORC1-Rag heterodimer complex-p62; assay: Immunoprecipitation of FLAG mTOR: p62/Rag GTPases/mTORC1 complex formation; format: cell-based, human; conditions: HEK293; 100 μM, absence of amino acids, 1 h
Method: as §3
HEK293 cells (ATCC CRL-1573) were grown and maintained in high-glucose (4.5 g/l glucose) DMEM with 10% (v/v) FBS. All HEK293 cell experiments were performed in serum-starved and amino acid-deprived conditions. 24 h after transfection (with plasmids or siRNA as indicated), HEK293 cells cultured in poly-L-lysine-coated 60 mm dishes were rinsed twice with DMEM without FBS and incubated in serum-free DMEM for 18 h. HEK293 cells were then washed once with EBSS and incubated in EBSS for 1 h.

p38γ = target: T1, p38γ (Homo sapiens, UniProt P53778); assay: In vitro kinase assay; format: biochemical
T1 construct: purchased Abcam ab125651
T1 sequence (P53778 1-367): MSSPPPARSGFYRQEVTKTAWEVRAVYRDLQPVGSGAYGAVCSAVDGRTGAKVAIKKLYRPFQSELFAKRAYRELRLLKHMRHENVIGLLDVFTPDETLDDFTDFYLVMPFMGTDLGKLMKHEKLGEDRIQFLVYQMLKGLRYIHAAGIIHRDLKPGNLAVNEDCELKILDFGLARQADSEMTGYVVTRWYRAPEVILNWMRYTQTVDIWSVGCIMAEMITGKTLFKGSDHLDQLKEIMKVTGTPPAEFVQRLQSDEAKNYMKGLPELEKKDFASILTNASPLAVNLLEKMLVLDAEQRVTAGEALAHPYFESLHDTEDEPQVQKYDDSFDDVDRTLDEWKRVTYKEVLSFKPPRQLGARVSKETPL
Method: 400 ng of recombinant p62 (Abcam, ab95320) and 200 ng of recombinant p38γ (Abcam, ab125651) were incubated in a kinase assay buffer [25 mM MOPS (pH 7.2), 12.5 mM beta-glycerol-phosphate, 25 mM MgCl2, 5 mM EGTA, 2 mM EDTA and 1 mM DTT] for 15 min on ice.

IRS1 = assay: Ubiquitination of IRS1; format: cell-based; conditions: 6 h treatment
Method: Cells were lysed under denaturing condition with 100 μl buffer A containing 2% SDS, and the cell lysates were transferred to a 1.5-ml microcentrifuge tube. The tube was placed on a hot plate immediately at 95° C. for 10 min. The cell lysates were sonicated and 700 μl of buffer A without SDS was added. The samples were incubated at 4° C. for 30 min, followed by centrifugation (20,000 g, 20 min). The supernatant was incubated with 20 μl of anti-FLAG beads (Sigma) at 4° C. for 4 h under gentle agitation.

mTORC1 = assay: mTOR modification in mTORC1 (Raptor immunoprecipitation), HEK293; format: cell-based, human
Method: as §3

SMILES: O=C(O)CCc1cnc[nH]1 [imidazole propionate]
- circulating concentrations of imidazole propionate [1]: around 13 nM
- effect on urocanate levels [1]: without affecting
- Akt phosphorylation, either S473 or T308, in liver [2]: no reduction
- S6K1 phosphorylation in the liver [2]: increased
- mTORC1 S2481 autophosphorylation in the liver [2]: without affecting
- hepatic levels of IRS1 and IRS2 ([2]; 500 μg twice per day): reduced
- hepatic levels of the insulin receptor (IR) ([2]; 500 μg twice per day): did not affect
- effect on urocanate levels [3]: without affecting
- increase of circulating concentrations of imidazole propionate [3]: around 4 fold
- IRS protein levels (primary hepatocytes; 100 μM for 8 h): did not affect
- insulin-induced IRS1 Y612 phosphorylation (primary hepatocytes; 100 μM for 8 h, insulin 5 nM): blunted
- IRS protein levels (primary hepatocytes; 100 μM for 20 h): reduced
- basal Akt phosphorylation at both S473 and T308 (primary hepatocytes; 8 h): induced
- insulin-induced Akt S473 phosphorylation (primary hepatocytes; 8 h, insulin 5 nM): reduced
- insulin-induced Akt T308 phosphorylation (primary hepatocytes; 8 h, insulin 5 nM): not
- IRS1 level (primary hepatocytes; 14 h): dramatic reduction
- basal Akt phosphorylation at S473 and T308 (primary hepatocytes; 14 h): increase
- insulin-induced Akt S473 phosphorylation (primary hepatocytes; 14 h): lower
- insulin-induced Akt T308 phosphorylation (primary hepatocytes; 14 h, vs vehicle): higher
- S6K1 phosphorylation (primary hepatocytes; ImP 100 μM): increased
- p62 phosphorylation (primary hepatocytes; ImP 100 μM for 24 h): induced
- S6K1 phosphorylation [4]: strongly induced
- lysosomal localization of mTOR (HEK293 cells): induced
- formation of the mTORC1-Rag heterodimer complex-p62 [5]: induced
- p62 phosphorylation (T269 and S272) by p38γ (p38γ; recombinant p38γ and p62, ATP 50 μM): enhanced
- p38γ autophosphorylation (p38γ; together with ATP): induced
- ubiquitination of IRS1 (IRS1): promoted
- modulation of mTORC1 (mTORC1; HEK293, 2 h incubation): specifically modulated
- mTOR S2448 phosphorylation in mTORC1 (mTORC1; Raptor immunoprecipitation): strongly induced
- mTOR S2481 phosphorylation in mTORC1 (mTORC1; Raptor immunoprecipitation): not

From patent US20190369122A1, “METABOLIC DISORDERS” (priority 2016, published 2019)
